Data set [1] has as its system P. falciparum wild-type (3D7) stage V gametocytes. The experiment in a line: Gametogenesis (rounding up) assay, wild-type 3D7 stage V gametocytes. The format is cell-based, Plasmodium falciparum. The note with it: 30 µM xanthurenic acid; 2 µM ML1, 1 µM ML10. As to the method:
Plasmodium falciparum clone 3D7A (obtained from Dr Lisa Ranford-Cartwright, University of Edinburgh) gametocytes were initiated and cultured using an adapted version of the traditional Trager and Jenson method modified by Fivelman and colleagues. Stage V gametocytes were purified on a 60% Percoll gradient. Purified parasite samples were diluted in warm complete media (RPMI-1640 (Sigma), 0.5% Albumax (Invitrogen), 0.03% L-glutamine (Sigma), 0.2% Glucose (Sigma), 1× hypoxanthine (Sigma)), to a volume that would allow a final volume of […] per sample and a haematocrit of <10%. […] Control tubes containing DMSO only were kept at 37 °C. All other samples were incubated at room temperature for 30 min immediately after addition of test compounds. Samples were then washed once in warm RPMI followed by removal of the supernatant to leave a final haematocrit of roughly 50%. Samples were smeared on glass slides and fixed in 100% methanol (VWR) then stained for 15 min in 10% Giemsa R66 (VWR) and observed by light microscopy. The number of gametocytes at stage V and rounded up per 900 erythrocytes were counted three consecutive times to produce an average count. Numbers of parasites rounded up were compared to the no drug control.

Data set [2] is described as follows: Cytotoxicity assay (ATP depletion), A549. The format is cell-based. The settings on record: human, A549 lung carcinoma cells, 0.001–10 µM, n = 6. As to the method:
(§1) A549 (lung carcinoma; ATCC, Ref. ATCC® CCL-185™), plated at 7.5×10^3 cells/well; HT-29 (colorectal adenocarcinoma; ATCC, Ref. ATCC® HTB-38™), plated at 7.5×10^3 cells/well; and MCF7 (breast adenocarcinoma; ATCC, Ref. ATCC® HTB-22™), plated at 9× 10^3 cells/well, were placed into clear bottom, opaque 96 well plates in cell line-specific medium and allowed to attach overnight. […] FCS, 1× GlutaMAX™ Supplement (Life Technologies, 35050061) and 50 units/ml penicillin and 50 µg/ml streptomycin for 48 h. Six independent assays were performed for each line and were carried out by CXR Biosciences Ltd. End point for cytotoxicity assessment was carried out using an ATP depletion kit (CellTiter-Glo Luminescent Cell Viability Assay for ATP quantitation (Promega, Cat # G7572)). Results expressed relative to the 0.1% DMSO control. Unpaired Student’s t-tests were performed using GraphPad Prism software (7.0).

Data set [3] can be described thus: Plasma levels in satellite groups of mice, P. berghei experiment. The format is in vivo, mouse. The note with it: BALB/c, mouse, in vivo, po, 25 mg/kg. An excerpt:
(§2) Supplementary Figure 4. Plasma concentrations over time in rodent malaria models. […] Error bars show the standard deviation. (1 picture or pasted object on this page, not shown here)

The test system of data set [4] is panel of 80 human protein kinases. The experiment in a line: Human kinase panel single point screen. The format is biochemical. The settings on record: tested at 100 nM. The text has this: The results are expressed as % inhibition of kinase activity.
(1 picture or pasted object on this page, not shown here)

A short description of data set [5]: Stability in mouse liver microsomes. The settings on record: mouse, microsomes, 0.5 h. As to the method:
(§3) Compound mlm hlm mLogD PAMPA HepG2 name (%rem) (%rem) (nm/s) (IC50 µM)
(§4) Supplementary Table 2. Compound Properties. MLM, HLM, mLogD and PAMPA . mlm (%rem): % of compound remaining after 30 minutes’ incubation with mouse liver microsomes; hlm (%rem): % of compound remaining after 40 minutes’ incubation with human liver microsomes; mLogD: measured LogD at pH 7.4; PAMPA: parallel artificial membrane permeability assay; HepG2: Cytotoxicity assay using HepG2 cells; n.t.: not tested.

Another data set concerns P. chabaudi (AS). Kind of data set: Synchronous P. chabaudi AS model in BALB/c mice. The format is in vivo, Plasmodium chabaudi. The settings on record: 4 days. How it is done: Similar experiments were performed using P. chabaudi AS (from David Walliker, University of Edinburgh) with the following modifications. To allow dosing to be carried out more conveniently during the day, reversal of the light/dark exposure of mice for 2 weeks prior to the experiment was used to switch schizogony from midnight to noon each day. Mice were dosed at different time points in an attempt to have maximal coverage at the point of schizogony. All animal work protocols carried out at LSHTM were approved and licensed by the United Kingdom Home Office as governed by law under the Animals (Scientific Procedures) Act of 1986, in strict accordance with the Code of Practice Part 1 for the housing and care of animals (21 March 2005), available at http://www.homeoffice.gov.uk/science-research/animal-research/

The nature of another data set: in vivo. The settings on record: BALB/c, mouse, po.
Text: as §2

Data set [6] in a line: Parallel artificial membrane permeability assay (PAMPA). The data set is classed as in vitro ADME. The text has this: Compound mlm hlm mLogD PAMPA HepG2
name (%rem) (%rem) (nm/s) (IC50 µM)
Supplementary Table 2. Compound Properties. MLM, HLM, mLogD and PAMPA . mlm
On the technique in general: In PAMPA a lipid-coated filter parts donor from acceptor wells.

A short description of data set [7]: Cytotoxicity assay using HepG2 cells. The settings on record: human. How it is done: as §3, §4
Data set [8] is described as follows: Stability in human liver microsomes. The settings on record: human, microsomes, 40 min. As to the method:
as §3, §4

The test system of data set [9] is P. falciparum Pf3D7 0087/N9. The experiment in a line: GSK P. falciparum humanized mouse model (GSKPfalcHuMouse) efficacy. The settings on record: 4 days.
Text: The mice were infected with 2 × 10^7 P. falciparum Pf3D7^0087/N9-infected erythrocytes (Day 0) at ~ 40% chimerism in peripheral blood. […] AUCED90 is the average daily exposure of the compound in whole blood that reduces parasitemia at day 7 of the in vivo assay by 90% with respect to parasitemia in vehicle-treated mice.
Data set [10] in a line: Cytotoxicity assay (ATP depletion), MCF7. The settings on record: human, MCF7 breast adenocarcinoma cells, 0.001–10 µM, n = 6. The format is cell-based. How it is done: as §1
For data set [11], the system named is P. falciparum (NF54) gametocytes. The experiment in a line: Standard membrane feeding assay (SMFA), gametocytes fed to Anopheles stephensi. The note with it: Plasmodium falciparum, NF54; gametocytes pre-incubated 24 h, oocysts counted day 7 post-feed; read-out: IC50 for reduction of the intensity of infection (oocysts). The data set is classed as cell-based, Plasmodium falciparum. How it is done: Mature P. falciparum (NF54) gametocytes (14 day culture, 0.3–0.5% gametocytes, 2% haematocrit) were obtained from an automated tipper system and incubated with compound for 24 h as previously described. Anopheles stephensi (Sind-Kasur Nijmegen strain[39] were reared at 30 °C and 70–80% humidity, while exposed to a 12/12 h day/night cycle. On the day of feeding, the gametocyte culture was adjusted to 50% hematocrit with human red blood cells and human serum and fed to 3–5 day old mosquitoes using a glass membrane mini-feeder system containing 0.35 ml of the P. falciparum culture/compound mix[40]. Unfed and partially fed mosquitoes were removed after feeding and blood fed females were maintained at 26 °C and 70–80% humidity. Up to 20 surviving mosquitoes were collected on day 7 post-infection and oocysts were visualized using a 1% merchurochrome solution and quantified by microscopy. IC50 values were determined by logistic regression using Maximum Likelihood Estimation to find best fit[41].

Molecules are shown by their SMILES. Some results are limits rather than exact numbers.

Regarding `Cc1cn2c(-c3ccnc(NCC4CC4)n3)c(-c3ccc(F)c(NS(C)(=O)=O)c3)nc2cc1CN(C)C` [ML10], the “rounding up of wild-type gametocytes” value in data set [1] is given as “blocked rounding up”. Further, the EC50 at 48 h in [2] and in data set [10] was > 10 µM each time. The half-life is 48 min in data set [3], 48 min in “in vivo” (25 mg/kg) and 66 min in the data set “in vivo” (50 mg/kg). In addition, the “inhibitory activity against panel of 80 human protein kinases” value in [4] is given as “only low levels of inhibitory activity”. In data set [5], the “mlm (%rem)” value is given as 59%. Moreover, the “reduction in blood stage parasitaemia” value with P. chabaudi (AS) (single daily oral dose 50 mg/kg just prior to schizogony) stood at 60.9%. Further, the “reduction in blood stage parasitaemia (mean)” value with P. chabaudi (AS) (twice daily oral dose 50 mg/kg (3 h apart)) is reported as 97.8%. Further, in “in vivo” (50 mg/kg), the concentration at 30 min is 10.4 µM. The concentration at 60 min in the data set “in vivo” (50 mg/kg) was ~8.4 µM. Further, the concentration at 4 h in “in vivo” (50 mg/kg) is < 0.084 µM. In addition, in data set [6], the Papp was 8.16 ×10⁻⁶ cm/s. The IC50 was > 20 µM in data set [7] and 0.0413 µM in [11]. The “hlm (%rem)” value in [8] stood at 61%. In addition, the “parasitaemia at the end of the treatment” value in data set [9] (100 mg/kg twice daily oral) is given as “not detectable”. Also, the effect on parasitaemia entry in data set [9] (50 or 100 mg/kg twice daily oral) is given as “dramatically reduced parasitaemia”.

By EC50 is commonly meant the concentration at which the effect is half-maximal. Low readings indicate a more potent agent, high ones a less potent agent. A word on the half-life: it is the time needed for the level to fall by half in the phase considered. A higher half-life goes with slow decline. The Papp is the rate of passage across a membrane or cell layer, normalised by area and donor concentration. A low value points to poor permeation. In general, IC50 refers to the concentration needed to halve the response being measured.

These data come from article PMC5585294, “A potent series targeting the malarial cGMP-dependent protein kinase clears infection and blocks transmission” (Nature Communications, 2017).
